The values below come from patent US9045429B2, “Substituted phenoxypyridines” (Bayer Intellectual Property GmbH, priority 2010, dated 2015).

Each structure is given as a SMILES string.

One assay deals with A375 cells. The experiment in a line: A375 Crystal Violet (CV) Proliferation Assay [Assay 5]. The class given is cell-based. The conditions noted are these: A-375, 96 h; A375 human melanoma cells (BRAF V600E), crystal violet staining, 4 days incubation. The protocol:
Assay 5: A375 Crystal Violet (CV) Proliferation Assay:
Cell proliferation for A375 cells [human melanoma cell line, expressing mutant BRAF V600E] was measured by crystal violet (CV) staining: Cultivated human A375 cells were plated out in a density of 1500 cells/measurement point in 200 μl of growth medium (DMEM/HAMS F12 with 10% FBS and 2 mM Glutamine) in a 96-well multititer plate. After 24 hours, the cells from a plate (zero plate) were stained with crystal violet (see below), while the medium in the other plates was replaced by fresh culture medium (200 μl) to which the test substances had been added in various concentrations (0 μM, and in the range 0.3 nM-30 μM; the final concentration of the solvent dimethyl sulphoxide was 0.5%). The cells were incubated in the presence of the test substances for 4 days. The cell proliferation was determined by staining the cells with crystal violet: the cells were fixed by adding 20 μl/measurement point of an 11% glutaraldehyde solution at room temperature for 15 min. After the fixed cells had been washed three times with water, the plates were dried at room temperature. The cells were stained by adding 100 μl/measurement point of a 0.1% crystal violet solution (pH adjusted to pH 3 by adding acetic acid). After the stained cells had been washed three times with water, the plates were dried at room temperature. The dye was dissolved by adding 100 μl/measurement point of a 10% acetic acid solution, and the extinction was determined by photometry at a wavelength of 595 nm. The percentage change in cell growth was calculated by normalizing the measurements to the extinctions of the zero point plate (=0%) and the extinction of the untreated (0 μM) cells (=100%). The IC50 values were determined by means of a 4-parameter fit using the company's own software.

In a further assay the test system is HCT116 cells. The experiment in a line: HCT116 Cell Titer Glo (CTG) Proliferation Assay [Assay 1]. As to conditions: HCT-116, HCT116 human colorectal cells, 72 hours incubation. Format: cell-based. The source says: Cell Titer Glo Proliferation Assay
The adherent tumor cell proliferation assay used to test the compounds of the present invention involves a readout called Cell Titre-Glo developed by Promega (Cunningham, BA “A Growing Issue: Cell Proliferation Assays. Modern kits ease quantification of cell growth” The Scientist 2001, 15(13), 26, and Crouch, S P et al., “The use of ATP bioluminescence as a measure of cell proliferation and cytotoxicity” Journal of Immunological Methods 1993, 160, 8 1-88).
Assay 1: HCT116 Cell Titer Glo (CTG) Proliferation Assay:
(§1) HCT116 cells [human colorectal cell line, expressing mutant […]] were plated at a density of 3000 cells/well in 96 well black-clear bottom tissue culture plates (Costar 3603 black/clear bottom) in 100 μl/well DMEM medium (DMEM/Ham's F12) with 10% Fetal Bovine Serum (FBS) and stable Glutamine incubated at 37° C. Sister wells were plated in separate plate for time zero determination. All plates were incubated overnight at 37° C. Take down time zero plate: 100 μl/well CTG solution (Promega Cell Titer Glo solution) were added to time zero wells in sister plate; the plates were mixed for 2 min on orbital shaker to ensure cell lysis, incubated for 10 minutes, luminescence was read on VICTOR 3 (Perkin Elmer). Twenty-four hours after cell seeding, test compounds were diluted in 50 μl medium and were added at a final concentration range from as high 10 μM to as low 300 pM depending on the activities of the tested compounds in serial dilutions at a final DMSO concentration of 0.4%. Cells were incubated for 72 hours at 37° C. after addition of the test compound. Then, using a Promega Cell Titer Glo Luminescent® assay kit, 100 μl microliter lysis buffer containing of the enzyme luciferase and its substrate, luciferin mixture, were added to each well and incubated for 10 min at room temperature in the dark to stabilize luminescence signal. The samples were read on VICTOR 3 (Perkin Elmer) using Luminescence protocol. The percentage change in cell growth was calculated by normalizing the measurements to the extinctions of the zero point plate (=0%) and the extinction of the untreated (0 μM) cells (=100%). The IC50 values were determined by means of a 4-parameter fit using the company's own software.
On the technique in general: Cellular ATP, detected with luciferase, serves as a proxy for viable cell number.

The test system of a further assay is A549 cells. The experiment in a line: A549 Cell Titer Glo (CTG) Proliferation Assay [Assay 2]. The class given is cell-based. As to conditions: A549 human non small cell lung cancer cells (K-Ras G12S), 72 hours incubation. The protocol: as §1
Assay 2: A549 Cell Titer Glo (CTG) Proliferation Assay:
A549 cells [human non small cell lung cancer cell line, expressing mutant K-Ras G12S] were seeded at a density of 2000 cells/well in 96 well black-clear bottom tissue culture plates (Costar 3603 black/clear bottom) in 100 μl/well DMEM medium (DMEM/Ham's F12) with 10% Fetal Bovine Serum (FBS) and stable Glutamine incubated at 37° C. Cell Titer Glo proliferation assays for A549 cells were performed with the same protocol as described afore for HCT116 cells.

The next assay relates to MEK1/2. As to conditions: MEK1/2 inhibitor, literature [17]; cited from earlier work.
The subject of the next assay is colon cancer. The conditions noted are these: oral treatment, mouse models, literature [18]; cited from earlier work.

On to `NC(=O)c1c(Nc2ccc(I)cc2F)cncc1Oc1ccc2oc(=O)[nH]c2c1` [Example 1, 3-[(2-fluoro-4-iodophenyl)amino]-5-[(2-oxo-2,3-dihydro-1,3-benzoxazol-5-yl)oxy]isonicotinamide], for which the IC50 – broadly, the midpoint of a concentration-inhibition curve – in the assay with A375 cells is 2.31 nM; with HCT116 cells, 45 nM; with A549 cells it was 59 nM.
For `NC(=O)c1c(Nc2ccc(I)cc2F)cncc1Oc1cccc(N)c1` [Example 3, 3-(3-aminophenoxy)-5-[(2-fluoro-4-iodophenyl)amino]isonicotinamide] the same measures were 0.676 nM, 214 nM and 377 nM.
For `CC(C)S(=O)(=O)Nc1cccc(Oc2cncc(Nc3ccc(I)cc3F)c2C(N)=O)c1` [Example 4, 3-[(2-fluoro-4-iodophenyl)amino]-5-{3[(isopropylsulfonyl)amino]phenoxy}isonicotinamide] the same measures were 0.411 nM, 11.1 nM and 14.3 nM.
Turning to `CS(=O)(=O)Nc1cccc(Oc2cncc(Nc3ccc(I)cc3F)c2C(N)=O)c1` [Example 5, 3-[(2-fluoro-4-iodophenyl)amino]-5-{3-[(methylsulfonyl)amino]phenoxy}isonicotinamide], the IC50 with A375 cells turned out to be 0.775 nM; with HCT116 cells, 18.8 nM; with A549 cells, 22.7 nM.
Taken in the same sequence, the figures for `CCS(=O)(=O)Nc1cccc(Oc2cncc(Nc3ccc(I)cc3F)c2C(N)=O)c1` [Example 6, 3-{3-[(ethylsulfonyl)amino]phenoxy}-5-[(2-fluoro-4-iodophenyl)amino]isonicotinamide] were 15.3 nM, 11 nM and 14.8 nM.
Taken in the same sequence, the figures for `NC(=O)c1c(Nc2ccc(I)cc2F)cncc1Oc1cccc(NS(=O)(=O)C2CC2)c1` [Example 7, 3-{3-[(cyclopropylsulfonyl)amino]phenoxy}-5-[(2-fluoro-4-iodophenyl)amino]isonicotinamide] were 15.2 nM, 9.71 nM and 17 nM.
Consider `CC(=O)Nc1cccc(Oc2cncc(Nc3ccc(I)cc3F)c2C(N)=O)c1` [Example 8, 3-(3-acetamidophenoxy)-5-[(2-fluoro-4-iodophenyl)amino]isonicotinamide], for which the IC50 was found to be 4.92 nM with A375 cells, 195 nM in the assay with HCT116 cells and 335 nM with A549 cells.
Taken in the same sequence, the figures for `CCC(=O)Nc1cccc(Oc2cncc(Nc3ccc(I)cc3F)c2C(N)=O)c1` [Example 9, 3-[(2-fluoro-4-iodophenyl)amino]-5-[3-(propionylamino)phenoxy]isonicotinamide] were 8.8 nM, 440 nM and 882 nM.
For `CC(C)C(=O)Nc1cccc(Oc2cncc(Nc3ccc(I)cc3F)c2C(N)=O)c1` [Example 10, 3-[(2-fluoro-4-iodophenyl)amino]-5-[3-(isobutyrylamino)phenoxy]isonicotinamide] the same measures were 21.5 nM, 1120 nM and 1670 nM.
`CC(C)(O)C(O)CCOc1cncc(Nc2ccc(I)cc2F)c1C(N)=O` (stereo not shown) [Example 12, 3-[(3,4-dihydroxy-4-methylpentyl)oxy]-5-[(2-fluoro-4-iodophenyl)amino]isonicotinamide]: the IC50 with A375 cells stood at 33.3 nM.
Take `C#Cc1ccc(Nc2cncc(Oc3cccc(NS(=O)(=O)CC)c3)c2C(N)=O)c(F)c1` [Example 14, 3-{3-[(ethylsulfonyl)amino]phenoxy}-5-[(4-ethynyl-2-fluorophenyl)amino]isonicotinamide]: the IC50 in the assay on A375 cells stood at 1.25 nM; in the assay on HCT116 cells it was 33.6 nM; in the assay on A549 cells it was 49.8 nM.
Take `COc1cncc(Nc2ccc(I)cc2F)c1C(N)=O` [Example 15, 3-[(2-fluoro-4-iodophenyl)amino]-5-methoxyisonicotinamide]: the IC50 in the assay on A375 cells worked out at 118 nM.
Take `O=C(NOCC1CC1)c1ccc(F)c(F)c1Nc1ccc(I)cc1Cl` [PD184352]: the IC50 entry in the assay on MEK1/2 is listed as “low nanomolar range”. Further, the “colon cancer growth in vivo” value in the assay with colon cancer is on record as “inhibit colon cancer growth”.
